How the values were obtained:
Assay type in all cases: biochemical
Human FAAH (MBPΔTMhFAAH) = biological target: T1, Human FAAH (MBPΔTMhFAAH) (Homo sapiens, UniProt O00519); test: Fluorescent assay protocol for hFAAH; conditions: human FAAH (MBP fusion, ΔTM), procedure as for rFAAH
T1 construct: made in house; host or cells: E. coli (pMALcE4 vector)
T1 sequence (O00519 30-579 limits assumed): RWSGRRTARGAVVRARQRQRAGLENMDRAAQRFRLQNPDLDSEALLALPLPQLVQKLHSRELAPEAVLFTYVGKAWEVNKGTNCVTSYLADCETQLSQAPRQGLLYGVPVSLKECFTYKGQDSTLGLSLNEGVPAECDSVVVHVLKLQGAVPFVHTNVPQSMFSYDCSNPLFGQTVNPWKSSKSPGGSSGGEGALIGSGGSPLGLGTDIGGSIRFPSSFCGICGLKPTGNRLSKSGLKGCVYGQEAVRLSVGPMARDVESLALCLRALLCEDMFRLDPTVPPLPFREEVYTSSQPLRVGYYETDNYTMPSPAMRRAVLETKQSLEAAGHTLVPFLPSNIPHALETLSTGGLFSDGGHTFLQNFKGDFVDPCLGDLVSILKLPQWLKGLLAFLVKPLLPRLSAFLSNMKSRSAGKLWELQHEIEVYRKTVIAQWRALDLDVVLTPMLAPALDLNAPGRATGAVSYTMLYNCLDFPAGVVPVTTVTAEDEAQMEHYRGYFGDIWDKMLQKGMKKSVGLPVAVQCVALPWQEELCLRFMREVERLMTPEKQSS
Description: Human FAAH without putative transmembrane domain following maltose binding protein was expressed in E. coli cells using pMALcE4 vector Alapafuja et al J. Med. Chem. (2012) 55: 10074-89.
Procedure was followed as described for hMAGL, except that arachidonoyl-methyl coumarin amide (AAMCA) was used as fluorigenic substrate. Compounds were diluted in 50:50 DMSO/assay buffer (50 mM HEPES, 1 mM EDTA, 0.1% BSA, pH 7.4) so as to have a final DMSO concentration below 8% in each reaction. For the screening assay, 3 concentrations (1 μM, 10 μM, and 100 μM) of test compounds, 15 μg of ΔTM rFAAH and assay buffer were pre-incubated for 15 min at 25° C. AAMCA (20 μM, 2×Km) was added prior to incubation at 25° C. and kinetic fluorescence reading every 20 minutes (λex=360/λem=460) for 4 hours on a BioTek Synergy HT Microplate Reader (BioTek Instruments, Winooski, Vt.). The fluorescence reading at the 3 hour time point (linear enzyme kinetics) was used to calculate percent inhibition based on control assays without inhibitor present. All FAAH assays were performed in triplicate for each inhibitor concentration, and IC50 values determined using Prizm software (GraphPad Software, Inc.).
Procedure was followed as described for rFAAH.

Rat MAGL (rMAGL) = biological target: T2, Rat MAGL (rMAGL) (Rattus norvegicus, UniProt Q8R431); test: Fluorescent assay protocol for rMAGL; conditions: recombinant rat MAGL, procedure as for hMAGL; read-out: IC50 rMAGL
T2 construct: made in house; host or cells: E. coli
T2 sequence (Q8R431 1-303): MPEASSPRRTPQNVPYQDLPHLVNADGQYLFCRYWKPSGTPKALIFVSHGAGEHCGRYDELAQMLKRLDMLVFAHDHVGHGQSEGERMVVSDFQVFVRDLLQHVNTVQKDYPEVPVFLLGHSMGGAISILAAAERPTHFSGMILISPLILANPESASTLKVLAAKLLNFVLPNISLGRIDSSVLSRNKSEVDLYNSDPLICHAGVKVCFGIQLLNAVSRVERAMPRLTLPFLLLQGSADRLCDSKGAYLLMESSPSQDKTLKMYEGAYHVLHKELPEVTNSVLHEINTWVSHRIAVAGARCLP
Description: (§1) This medium throughput assay involved a 96-well plate format in which hMAGL activity was monitored by the hydrolysis of the substrate 7-hydroxy-6-methoxy-4-methylcoumarin ester (AHMMCE) to form the fluorescent product, coumarin. […] Upon the addition of AHMMCE, the reaction was incubated at 25° C. for 120 min; fluorescence readings were taken every 15 min at 360 nm/460 nm (λexcitation/λemission) using a Synergy HT Plate Reader (Bio-Tek, Winooski, Vt.). […] External standards were used to convert relative fluorescence units to the amount of 4-methylcoumarin formed. All MAGL assays were performed in triplicate for each inhibitor concentration, and IC50 values were calculated using Prizm software (GraphPad Software, Inc., San Diego, Calif.).
Procedure was followed as described for hMAGL.

Human MAGL (hMAGL) = biological target: T3, Human MAGL (hMAGL) (Homo sapiens, UniProt Q99685); test: Fluorescent assay protocol for hMAGL (AHMMCE substrate); conditions: recombinant human MAGL, AHMMCE substrate, 15 min preincubation; read-out: IC50 hMAGL
T3 construct: hexahistidine; made in house; host or cells: E. coli
T3 sequence (Q99685 1-303): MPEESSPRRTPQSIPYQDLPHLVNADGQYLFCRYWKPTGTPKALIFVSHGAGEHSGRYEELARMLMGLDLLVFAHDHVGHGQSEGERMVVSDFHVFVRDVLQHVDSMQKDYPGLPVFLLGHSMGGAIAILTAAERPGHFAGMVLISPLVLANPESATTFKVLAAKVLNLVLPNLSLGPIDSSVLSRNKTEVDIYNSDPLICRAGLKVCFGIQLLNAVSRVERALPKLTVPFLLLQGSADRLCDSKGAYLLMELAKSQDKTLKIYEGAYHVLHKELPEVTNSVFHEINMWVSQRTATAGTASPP
Description: as §1

ΔTM rat FAAH = biological target: T4, ΔTM rat FAAH (Rattus norvegicus, UniProt P97612); test: Fluorescent assay protocol for ΔTM rat FAAH (AAMCA substrate); conditions: 15 min preincubation, read-out: IC50 rFAAH
T4 construct: Preparation of Transmembrane Domain-Deleted Rat FAAH (ΔTM rFAAH); made in house; host or cells: E. coli
T4 sequence (P97612 30-579 limits assumed): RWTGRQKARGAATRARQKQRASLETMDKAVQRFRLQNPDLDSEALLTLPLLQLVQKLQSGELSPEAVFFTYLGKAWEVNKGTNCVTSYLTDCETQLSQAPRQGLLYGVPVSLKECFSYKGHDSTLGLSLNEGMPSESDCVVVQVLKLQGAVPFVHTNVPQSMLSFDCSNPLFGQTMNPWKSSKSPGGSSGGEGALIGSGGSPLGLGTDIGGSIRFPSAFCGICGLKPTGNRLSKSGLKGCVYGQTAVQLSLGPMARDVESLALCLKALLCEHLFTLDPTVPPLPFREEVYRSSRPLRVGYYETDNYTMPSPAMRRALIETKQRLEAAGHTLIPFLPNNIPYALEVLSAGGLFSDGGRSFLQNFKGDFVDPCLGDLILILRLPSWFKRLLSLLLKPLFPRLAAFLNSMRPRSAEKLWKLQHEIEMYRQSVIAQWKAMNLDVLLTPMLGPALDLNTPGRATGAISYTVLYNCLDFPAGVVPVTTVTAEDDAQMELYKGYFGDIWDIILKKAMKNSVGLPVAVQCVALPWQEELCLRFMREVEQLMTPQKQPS
Description: Procedure was followed as described for hMAGL, except that arachidonoyl-methyl coumarin amide (AAMCA) was used as fluorigenic substrate. […] For the screening assay, 3 concentrations (1 μM, 10 μM, and 100 μM) of test compounds, 15 μg of ΔTM rFAAH and assay buffer were pre-incubated for 15 min at 25° C. […] The fluorescence reading at the 3 hour time point (linear enzyme kinetics) was used to calculate percent inhibition based on control assays without inhibitor present. All FAAH assays were performed in triplicate for each inhibitor concentration, and IC50 values determined using Prizm software (GraphPad Software, Inc.).

SMILES | IC50 (Human FAAH (MBPΔTMhFAAH)) [nM] | IC50 (Rat MAGL (rMAGL)) [nM] | IC50 (Human MAGL (hMAGL)) [nM] | IC50 (ΔTM rat FAAH) [nM]
O=C(Nc1cccc(Oc2ccccc2)c1)N1CCN(Cc2ccc3ccccc3n2)CC1 [Example 14, N-(3-phenoxyphenyl)-4-(quinolin-2-ylmethyl)piperazine-1-carboxamide] | > 1000 | > 1000 | > 1000 | > 1000
N#Cc1cccc(-c2cccc(NC(=O)N3CCC(c4ccccc4)CC3)c2)c1 [Example 15, N-(3′-cyano-[1,1′-biphenyl]-3-yl)-4-phenylpiperidine-1-carboxamide] | > 1000 | > 1000 | > 1000 | > 1000
N#Cc1cccc(-c2cncc(NC(=O)N3CCC(c4ccccc4)CC3)c2)c1 [Example 16, N-(5-(3-cyanophenyl)pyridin-3-yl)-4-phenylpiperidine-1-carboxamide] | > 1000 | > 1000 | > 1000 | > 1000
N#Cc1cccc(-c2cccc(NC(=O)N3CCC4(CC3)CC(=O)c3ccccc3O4)c2)c1 [Example 20, N-(3′-cyano-[1,1′-biphenyl]-3-yl)-4-oxospiro[chromane-2,4′-piperidine]-1′-carboxamide] | 110 to 1000 | > 1000 | > 1000 | 110 to 1000
C[C@H]1CN(C(=O)n2cnc(-c3ccccc3)c2)CCN1Cc1cccc(-c2ccccc2)c1 [Example 21, (S)-(4-([1,1′-biphenyl]-3-ylmethyl)-3-methylpiperazin-1-yl)(4-phenyl-1H-imidazol-1-yl)methanone] | 110 to 1000 | > 1000 | > 1000 | 110 to 1000
C[C@H]1CN(Cc2cccc(Oc3ccccc3)c2)CCN1C(=O)n1cnc(Br)c1 [Example 22, (S)-(4-bromo-1H-imidazol-1-yl)(2-methyl-4-(3-phenoxybenzyl)piperazin-1-yl)methanone] | 110 to 1000 | > 1000 | > 1000 | 110 to 1000
CC1CN(c2ccccc2)CCN1C(=O)n1cnc(-c2ccccc2)c1 (stereo not shown) [Example 23, (2-methyl-4-phenylpiperazin-1-yl)(4-phenyl-1H-imidazol-1-yl)methanone] | 110 to 1000 | > 1000 | > 1000 | 10 to 100
CC1CN(C(=O)n2cnc(-c3ccccc3)c2)CCN1c1ccccc1 (stereo not shown) [Example 24, (3-methyl-4-phenylpiperazin-1-yl)(4-phenyl-1H-imidazol-1-yl)methanone] | 110 to 1000 | > 1000 | > 1000 | 10 to 100
CC1CN(C(=O)n2cnc(-c3ccccc3)c2)CCN1c1cccc(OCc2ccccc2)c1 (stereo not shown) [Example 26, (4-(3-(benzyloxy)phenyl)-3-methylpiperazin-1-yl)(4-phenyl-1H-imidazol-1-yl)methanone] | 110 to 1000 | > 1000 | > 1000 | 10 to 100
CC1CN(C(=O)n2cnc(-c3ccccc3)c2)CCN1c1cccc(O)c1 (stereo not shown) [Example 27, (4-(3-hydroxyphenyl)-3-methylpiperazin-1-yl)(4-phenyl-1H-imidazol-1-yl)methanone] | 110 to 1000 | > 1000 | > 1000 | 110 to 1000
O=C(N1CCN(C(c2ccc(F)cc2)c2ccc(F)cc2)CC1)n1cnc(Br)c1 [Example 28, (4-(bis(4-fluorophenyl)methyl)piperazin-1-yl)(4-bromo-1H-imidazol-1-yl)methanone] | 110 to 1000 | > 1000 | > 1000 | 110 to 1000

Other lines, results leading:

IC50 (Human FAAH (MBPΔTMhFAAH)) [nM] | IC50 (Rat MAGL (rMAGL)) [nM] | IC50 (Human MAGL (hMAGL)) [nM] | IC50 (ΔTM rat FAAH) [nM] | SMILES
10 to 100 | > 1000 | > 1000 | 10 to 100 | N#Cc1cccc(-c2cccc(NC(=O)N3CCN(Cc4ccc5ccccc5n4)CC3)c2)c1 [Example 13, N-(3′-cyano-[1,1′-biphenyl]-3-yl)-4-(quinolin-2-ylmethyl)piperazine-1-carboxamide]
10 to 100 | > 1000 | > 1000 | 10 to 100 | N#Cc1cccc(-c2cccc(NC(=O)N3CCN(Cc4cccc(-c5ccccc5)c4)CC3)c2)c1 [Example 17, 4-([1,1′-biphenyl]-3-ylmethyl)-N-(3′-cyano-[1,1′-biphenyl]-3-yl)piperazine-1-carboxamide]
110 to 1000 | > 1000 | > 1000 | 10 to 100 | NC(=O)c1cccc(-c2cccc(NC(=O)N3CCN(Cc4cccc(Oc5ccccc5)c4)CC3)c2)c1 [Example 18, N-(3′-carbamoyl-[1,1′-biphenyl]-3-yl)-4-(3-phenoxybenzyl)piperazine-1-carboxamide]
110 to 1000 | > 1000 | > 1000 | 110 to 1000 | C[C@H]1CN(C(=O)Nc2cccc(-c3cccc(C#N)c3)c2)CCN1Cc1ccc2ccccc2n1 [Example 19, (S)—N-(3′-cyano-[1,1′-biphenyl]-3-yl)-3-methyl-4-(quinolin-2-ylmethyl)piperazine-1-carboxamide]
10 to 100 | > 1000 | > 1000 | 10 to 100 | Cc1ccc(N2CCN(C(=O)n3cnc(-c4ccccc4)c3)CC2C)cc1 (stereo not shown) [Example 25, (3-methyl-4-(p-tolyl)piperazin-1-yl)(4-phenyl-1H-imidazol-1-yl)methanone]

From patent US11214578B2, “Urea/carbamates FAAH MAGL or dual FAAH/MAGL inhibitors and uses thereof” (Northeastern University, priority 2014, dated 2022)
